# PubChem BioAssay (NCI)
#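 How tested: cells in 96-well plates exposed to compound for 48 hours at five concentrations. TGI: concentration producing complete growth inhibition.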
# What was measured:
# Assay in all cases: DTP human tumour cell line panel, 48 h
# MOLT-4 leukemia = test system: MOLT-4 leukemia
# ACHN renal = test system: ACHN renal
# HOP-92 NSCLC = test system: HOP-92 NSCLC
# 786-0 renal = test system: 786-0 renal
# K-562 leukemia = test system: K-562 leukemia
# NCI/ADR-RES ovarian = test system: NCI/ADR-RES ovarian
# MCF7 breast = test system: MCF7 breast
# OVCAR-5 ovarian = test system: OVCAR-5 ovarian
# CCRF-CEM leukemia = test system: CCRF-CEM leukemia
# COLO 205 colon = test system: COLO 205 colon
# HS 578T breast = test system: HS 578T breast
# NCI-H226 lung = test system: NCI-H226 lung
# NCI-H522 lung = test system: NCI-H522 lung
# A549 NSCLC = test system: A549 NSCLC
# PC-3 prostate = test system: PC-3 prostate
# M14 melanoma = test system: M14 melanoma
# SK-MEL-28 melanoma = test system: SK-MEL-28 melanoma
# NCI-H460 lung = test system: NCI-H460 lung
# SF-295 CNS = test system: SF-295 CNS
# IGROV1 ovarian = test system: IGROV1 ovarian
# OVCAR-4 ovarian = test system: OVCAR-4 ovarian
# SK-MEL-5 melanoma = test system: SK-MEL-5 melanoma
# BT-549 breast = test system: BT-549 breast
# LOX IMVI melanoma = test system: LOX IMVI melanoma
# NCI-H23 lung = test system: NCI-H23 lung
# MDA-N = test system: MDA-N
# HL-60(TB) leukemia = test system: HL-60(TB) leukemia
# HCT-15 colon = test system: HCT-15 colon
# T-47D breast = test system: T-47D breast
# UACC-62 melanoma = test system: UACC-62 melanoma
# HOP-62 NSCLC = test system: HOP-62 NSCLC
# CAKI-1 renal = test system: CAKI-1 renal
# HCC-2998 colon = test system: HCC-2998 colon
# SW-620 colon = test system: SW-620 colon
# TK-10 renal = test system: TK-10 renal
# SNB-75 CNS = test system: SNB-75 CNS
# SK-MEL-2 melanoma = test system: SK-MEL-2 melanoma
# MALME-3M melanoma = test system: MALME-3M melanoma
# SF-268 CNS = test system: SF-268 CNS
# KM12 colon = test system: KM12 colon
# RPMI-8226 leukemia = test system: RPMI-8226 leukemia
# HT29 colon = test system: HT29 colon
# EKVX NSCLC = test system: EKVX NSCLC
# RXF 393 renal = test system: RXF 393 renal
# OVCAR-3 ovarian = test system: OVCAR-3 ovarian
# OVCAR-8 ovarian = test system: OVCAR-8 ovarian
# SF-539 CNS = test system: SF-539 CNS
# SK-OV-3 ovarian = test system: SK-OV-3 ovarian
# MDA-MB-435 = test system: MDA-MB-435
# DU-145 prostate = test system: DU-145 prostate
# U251 CNS = test system: U251 CNS
# HCT-116 colon = test system: HCT-116 colon
# SR leukemia = test system: SR leukemia
# SN12C renal = test system: SN12C renal
# MDA-MB-231 breast = test system: MDA-MB-231 breast
# UACC-257 melanoma = test system: UACC-257 melanoma
# SNB-19 CNS = test system: SNB-19 CNS
# UO-31 renal = test system: UO-31 renal
smiles,measurement,setting,value
Cc1nn(C(=O)c2ccccc2O)c2c1C(c1ccccc1O)SC(N)=N2 (stereo not given),TGI,MOLT-4 leukemia,> 10 µM
same,TGI,ACHN renal,> 10 µM
same,TGI,HOP-92 NSCLC,> 10 µM
same,TGI,786-0 renal,> 10 µM
same,TGI,K-562 leukemia,> 10 µM
same,TGI,NCI/ADR-RES ovarian,> 10 µM
same,TGI,MCF7 breast,> 10 µM
same,TGI,OVCAR-5 ovarian,> 10 µM
same,TGI,CCRF-CEM leukemia,9.01 µM
same,TGI,COLO 205 colon,> 10 µM
same,TGI,HS 578T breast,> 10 µM
same,TGI,NCI-H226 lung,8.96 µM
same,TGI,NCI-H522 lung,> 10 µM
same,TGI,A549 NSCLC,> 10 µM
same,TGI,PC-3 prostate,> 10 µM
same,TGI,M14 melanoma,> 10 µM
same,TGI,SK-MEL-28 melanoma,> 10 µM
same,TGI,NCI-H460 lung,> 10 µM
same,TGI,SF-295 CNS,> 10 µM
same,TGI,IGROV1 ovarian,> 10 µM
same,TGI,OVCAR-4 ovarian,> 10 µM
same,TGI,SK-MEL-5 melanoma,> 10 µM
same,TGI,BT-549 breast,> 10 µM
same,TGI,LOX IMVI melanoma,> 10 µM
same,TGI,NCI-H23 lung,> 10 µM
same,TGI,MDA-N,> 10 µM
same,TGI,HL-60(TB) leukemia,5.02 µM
same,TGI,HCT-15 colon,> 10 µM
same,TGI,T-47D breast,> 10 µM
same,TGI,UACC-62 melanoma,> 10 µM
same,TGI,HOP-62 NSCLC,> 10 µM
same,TGI,CAKI-1 renal,> 10 µM
same,TGI,HCC-2998 colon,> 10 µM
same,TGI,SW-620 colon,> 10 µM
same,TGI,TK-10 renal,> 10 µM
same,TGI,SNB-75 CNS,> 10 µM
same,TGI,SK-MEL-2 melanoma,> 10 µM
same,TGI,MALME-3M melanoma,> 10 µM
same,TGI,SF-268 CNS,> 10 µM
same,TGI,KM12 colon,> 10 µM
same,TGI,RPMI-8226 leukemia,8.19 µM
same,TGI,HT29 colon,> 10 µM
same,TGI,EKVX NSCLC,> 10 µM
same,TGI,RXF 393 renal,> 10 µM
same,TGI,OVCAR-3 ovarian,> 10 µM
same,TGI,OVCAR-8 ovarian,> 10 µM
same,TGI,SF-539 CNS,3.53 µM
same,TGI,SK-OV-3 ovarian,> 10 µM
same,TGI,MDA-MB-435,> 10 µM
same,TGI,DU-145 prostate,> 10 µM
same,TGI,U251 CNS,> 10 µM
same,TGI,HCT-116 colon,> 10 µM
same,TGI,SR leukemia,5.4 µM
same,TGI,SN12C renal,> 10 µM
same,TGI,MDA-MB-231 breast,> 10 µM
same,TGI,UACC-257 melanoma,> 10 µM
CCOC(=O)c1nc2cc(C(F)(F)F)ccc2nc1Oc1ccc(OC)cc1,TGI,MOLT-4 leukemia,> 100 µM
same,TGI,ACHN renal,> 100 µM
same,TGI,HOP-92 NSCLC,> 100 µM
same,TGI,786-0 renal,> 100 µM
same,TGI,K-562 leukemia,> 100 µM
same,TGI,NCI/ADR-RES ovarian,> 100 µM
same,TGI,MCF7 breast,> 100 µM
same,TGI,OVCAR-5 ovarian,> 100 µM
same,TGI,CCRF-CEM leukemia,> 100 µM
same,TGI,COLO 205 colon,> 100 µM
same,TGI,HS 578T breast,> 100 µM
same,TGI,NCI-H226 lung,> 100 µM
same,TGI,NCI-H522 lung,> 100 µM
same,TGI,A549 NSCLC,> 100 µM
same,TGI,PC-3 prostate,> 100 µM
same,TGI,M14 melanoma,> 100 µM
same,TGI,SK-MEL-28 melanoma,> 100 µM
same,TGI,NCI-H460 lung,> 100 µM
same,TGI,SF-295 CNS,> 100 µM
same,TGI,IGROV1 ovarian,> 100 µM
same,TGI,OVCAR-4 ovarian,> 100 µM
same,TGI,SK-MEL-5 melanoma,> 100 µM
same,TGI,BT-549 breast,> 100 µM
same,TGI,LOX IMVI melanoma,> 100 µM
same,TGI,MDA-N,> 100 µM
same,TGI,SNB-19 CNS,> 100 µM
same,TGI,HL-60(TB) leukemia,> 100 µM
same,TGI,HCT-15 colon,> 100 µM
same,TGI,UO-31 renal,> 100 µM
same,TGI,T-47D breast,> 100 µM
same,TGI,UACC-62 melanoma,> 100 µM
same,TGI,CAKI-1 renal,> 100 µM
same,TGI,HCC-2998 colon,> 100 µM
same,TGI,SW-620 colon,> 100 µM
same,TGI,TK-10 renal,> 100 µM
same,TGI,SNB-75 CNS,> 100 µM
same,TGI,SK-MEL-2 melanoma,> 100 µM
same,TGI,MALME-3M melanoma,> 100 µM
same,TGI,SF-268 CNS,> 100 µM
same,TGI,KM12 colon,> 100 µM
same,TGI,RPMI-8226 leukemia,> 100 µM
same,TGI,EKVX NSCLC,> 100 µM
same,TGI,RXF 393 renal,> 100 µM
same,TGI,OVCAR-3 ovarian,> 100 µM
same,TGI,OVCAR-8 ovarian,> 100 µM
same,TGI,SF-539 CNS,> 100 µM
same,TGI,MDA-MB-435,> 100 µM
same,TGI,DU-145 prostate,> 100 µM
same,TGI,U251 CNS,> 100 µM
same,TGI,HCT-116 colon,> 100 µM
same,TGI,SR leukemia,> 100 µM
same,TGI,SN12C renal,> 100 µM
same,TGI,MDA-MB-231 breast,> 100 µM
same,TGI,UACC-257 melanoma,> 100 µM
